Results as given in patent publication US20070016978A1, “PLANTS HAVING AN ENHANCED RESISTANCE TO NECROTROPHIC PATHOGENS AND METHOD OF MAKING SAME” (priority 2005, published 2007).

Key:
PDF1.2 gene = PDF1.2 gene expression in response to JA (RNA gel blot); format: in vivo, Arabidopsis; conditions: ssi2 fad7 and ssi2 fad7 fad8 plants, 50 μM JA, 48 h post treatment
Procedure: Small-scale extraction of RNA from one or two leaves is performed in the TRIzol reagent (Invitrogen, Gaithersburg, Md.) following the manufacturer's instructions. Northern blot analysis and synthesis of random primed probes for PR-1, PR-2 and PDF1.2 are carried out as described in Kachroo et al., 2001.
(§1) JA treatments are carried out as described in Kachroo et al., 2001.
FIGS. 5(A)-5(I) illustrate glycerol-mediated effects on mutants impaired in various fatty add desaturation (fad) steps and double mutant analysis of ssi2 in different fad backgrounds. […] RNA gel blot analysis was performed on […] of total RNA extracted from 4-week-old soil-grown plants. Ethidium bromide staining of rRNA was used as a loading control. […] The values presented are averages of three replicates. FIG. 5(D) is a plot showing glycerol-induced changes in the 18:1 levels in leaf tissue of four-week-old plants. The ssi2 gly1 and ssi2 act1 plants were used as controls. […] FIG. 5(F) comprises a series of microscopies of trypan blue-stained leaves from ssi2 and various ssi2 fad double- and triple-mutant plants. FIG. 5(G) illustrates expression of the PR-1 and PR-2 genes in wt, ssi2, and various ssi2 fad double and triple mutant plants. […] Samples were harvested 48 h post treatment and analyzed by RNA gel blot analysis performed on 7 μg of total RNA. […]

PR-1 gene = conditions: exogenous application on wt plants; cited from earlier work
[1] = tested on: Peronospora parasitica biotype Emco5; conditions: glycerol-treated npr1 plants, glycerol 72 h prior to inoculation
SA and SAG levels = experiment: Endogenous SA and SAG levels in leaves of glycerol-treated plants; format: in vivo, Arabidopsis; conditions: for induction in SA levels / induction in the SAG levels: glycerol- versus water-treated, 50 mM glycerol
Procedure: (§2) SA and SA glucoside (SAG) are extracted and measured from 0.2-0.3 g of fresh weight leaf tissue, as described in Chandra-Shekara et al., 2004. FA analysis is carried out as described in Dahmer et al., 1989; and He et al., 2002. Lipids are extracted as described in Welti et al., 2002. Lipid profiles and acyl group identification are carried out using an automated electrospray ionization-tandem mass spectrometry facility available at the Kansas Lipidomics Center.
as §1
(§3) Ethidium bromide staining of rRNA used as a loading control. FIG. 3(D) is a graph showing growth of P. parasitica biotype Emco5 on various plant genotypes listed at the left. The Landsberg (Ler) ecotype used as the resistant control. […] The shade of each box indicates the severity of infection, based on the number of sporangiophores per cotyledon (see key at the right). FIG. 3(E) is a plot showing glycerol-induced changes in the 18:1 levels in leaf tissue of 4-week-old plants.

18:1 levels = experiment: Leaf 18:1 content after glycerol application (GC); format: in vivo, Arabidopsis; conditions: wt and plants impaired in the SA signaling pathway, three days after glycerol application
Procedure: as §2, §1, §3

C. higginsianum [2] = experiment: Growth of C. higginsianum in liquid Fries minimal medium; format: cell-based, Colletotrichum higginsianum; conditions: G3P added in minimal medium containing a preferred carbon source like sucrose or glycerol; 10 mM G3P, 5 days, 30° C.
Description: (§4) Several lines of evidence point to G3P levels as being of primary importance. […] Secondly, the gli1 and gly1 plants, with lower levels of G3P, are slightly more susceptible to C. higginsianum.

C. higginsianum [3] = experiment: Anthracnose lesion development on Arabidopsis leaves infiltrated with G3P before infection; format: in vivo; conditions: infiltration of G3P into Arabidopsis leaves prior to infection
Procedure: as §4
Inoculation with Peronospora parasitica Emco5 is conducted as described in Kachroo et al., 2001. Inoculation with Colletotrichum higginssianum is carried out by spraying the spores at a concentration of […] and spot inoculating at a concentration of 104-105/ml. After inoculation, the plants are covered with a transparent plastic dome and kept in a growth chamber at 22° C., 65% relative humidity and 14 hour photoperiod. Infections are evaluated every day and scored for disease at 4-6 dpi. Inoculation with Pseudomonas syringae is conducted as described in Shah et al., 2001.

With CC/C=C\C[C@H]1C(=O)CC[C@@H]1CC(=O)O [JA, jasmonic acid] the PDF1.2 expression (PDF1.2 gene) was “basal level expression of PDF1.2”.

In the case of OCC(O)CO [glycerol], the PR-1 gene expression (PR-1 gene) is given as “induction of PR-1 gene expression”, the “reduction in the number of susceptible plants” value [1] is given as “about 60%” and the “induction in SA levels” value (SA and SAG levels; Columbia-O (Col-O) plants) is given as 13 fold. For the same compound, the “induction in the SAG levels” value (SA and SAG levels; Columbia-O (Col-O) plants) was 10 fold, the “induction in SA levels” value (SA and SAG levels; Nossen (No) plants) was 10 fold and the “induction in the SAG levels” value (SA and SAG levels; Nossen (No) plants) was 8 fold. The “SA levels upon glycerol treatment, lower than in wt plants” value (SA and SAG levels; fad7 and fad7 fad8 plants versus glycerol-treated wt) was 3 fold and the “leaf 18:1 levels” value (18:1 levels) was “drastic reduction in their 18:1 levels”.

With O=P(O)(O)OCC(O)CO (centres unmarked) [G3P, glycerol-3-phosphate] the “inhibition of fungal growth” value (C. higginsianum [2]) was about 3 fold and the “necrosis triggered by the fungus at the site of entry” value (C. higginsianum [3]) was “significantly reduced necrosis”.
